From patent US20240150691A1, “BILE DUCT CHIP AND USE THEREOF” (Kyoto University, priority 2021, published 2024)
One block for each molecule: values may come before it.

Key:
[1] = target: T1, CYP2C19 (Homo sapiens, UniProt P33261); experiment: Measurement of CYP activity using CYP substrates in PHH (MPHT to 4OH-MPHT); assay type: in vitro ADME; conditions: 50 μM MPHT
T1 construct: endogenous in cells; host or cells: primary human hepatocytes (PHH)
Procedure: (§1) The LC-MS/MS analysis was carried out to measure the activity of CYP. Prior to a CYP substrate treatment, PHH was cultured in DMEM containing 10 mM HEPES for 30 minutes. Subsequently, the PHH was cultured in a culture medium containing 5 μM MDZ (the metabolite thereof is 1OH-MDZ), 50 μM MPHT (the metabolite thereof is 4OH-MPHT), 5 μM DIC (the metabolite thereof is 4OH-DIC), 10 μM BUF (the metabolite thereof is 1OH-BUF), or 50 μM PHE (the metabolite thereof is APAP). The supernatant was recovered 1, 2, and 4 hours after the treatment with the substrate. At the time of recovering the supernatant, an equal amount of a culture medium containing the substrate was added.
(§2) The recovered supernatant was mixed with acetonitrile (FUJIFILM Wako Pure Chemical Corporation) containing an equal volume of 5 μM propranolol (internal standard). The specimen was filtered through a Cosmonice Filter W (Nacalai Tesque, Inc.) having a pore size of 0.45 μm, the supernatant was subsequently analyzed by LC-MS/MS, and the concentration of the metabolite was measured based on the standard curve. […]
(§3) Subsequently, the drug metabolic activities of the PHH cultured in the PDMS device and the PS plate were compared. […] Subsequently, after 1, 2, and 4 hours, the amounts of the metabolites (OH-MDZ, 4OH-DIC, APAP, 1OH-BUF, and 4OH-MPHT) generated in the culture medium were measured by LC-MS/MS.

[2] = Drug absorption in microfluidic device without PHH (LC-MS/MS); assay type: physicochemical; conditions: for Drug absorption rate: Microfluidic device/Polystyrene plate, without PHH
Procedure: (§4) A culture medium containing MDZ, DIC, PHE, BUF, or MPHT was added to a microfluidic device or a polystyrene plate. Subsequently, 1, 2, and 4 hours after the addition of the drugs, the amounts of these drugs were quantified with LC-MS/MS.
as §4, with “APAP (a CYP1A2 metabolite), 1OH-MDZ (a CYP3A4 metabolite), 4OH-DIC (a CYP2C9 metabolite), 4OH-MPHT (a CYP2C19 metabolite),” for “MDZ, DIC, PHE, BUF,”, “1OH-BUF (a CYP2D6 metabolite)” for “MPHT”
Subsequently, it was examined whether the absorption of the drugs and metabolites could be predicted by the relative physicochemical characteristics between the microfluidic device and the polystyrene plate. The drug absorption rate between the microfluidic device and the polystyrene plate was calculated. Subsequently, a correlation coefficient R^2 value between the drug absorption rate and the physicochemical characteristics (DiffCoef, M Log P, S+Log P, S+log D, MWt, and tPSA) of the drugs was calculated.

[3] = target: T2, CYP2D6 (Homo sapiens, UniProt P10635); experiment: Measurement of CYP activity using CYP substrates in PHH (BUF to 1OH-BUF); assay type: in vitro ADME; conditions: 10 μM BUF
T2 construct: endogenous in cells; host or cells: primary human hepatocytes (PHH)
Procedure: as §1, §2, §3

[4] = Acetaminophen-induced cytotoxicity, WST-8 assay; assay type: cell-based, human; conditions: human, PHH cultured on the polystyrene plate
Procedure: (§5) PHH was exposed to 10 mM APAP (FUJIFILM Wako Pure Chemical Corporation) for 4 days. Cell viability was measured according to a WST-8 assay. The WST-8 assay was carried out using a Cell Counting Kit-8 (Dojindo Molecular Technologies. Inc.) according to the instruction manual. The cell viability was calculated as a percentage with respect to cells not subjected to a drug treatment.
(§6) The drug responsiveness of the PHH cultured in the microfluidic device and the polystyrene plate was evaluated. PHH was treated with acetaminophen (APAP), which is known to cause drug-induced liver damage at a high concentration, in order to investigate whether or not drug-induced liver damage can be evaluated in PHH cultured in a microfluidic device. PHH was seeded in a microfluidic device or a polystyrene plate and cultured for 24 hours. Subsequently, the PHH was exposed to 10 mM acetaminophen for 4 days. Subsequently, cell viability was measured according to a WST-8 assay.
(§7) Subsequently, the hepatotoxicity of PHH due to acetaminophen was examined. The PHH cultured on the polystyrene plate was exposed to acetaminophen at various concentrations for 4 days. Subsequently, cell viability was measured according to a WST-8 assay. […] The data is indicated as average value±standard deviation (n=3).

[5] = test system: PHH; experiment: Acetaminophen-induced cytotoxicity, WST-8 assay; assay type: cell-based, human; conditions: 10 mM acetaminophen, 4 days
Procedure: as §5, §6, §7

[6] = test system: CYP1A2; experiment: Measurement of CYP activity using CYP substrates in PHH (PHE to APAP); assay type: in vitro ADME, human; conditions: 50 μM PHE
Procedure: The supernatant was recovered 1, 2, and 4 hours after the treatment with the substrate.

[7] = target: T3, CYP2C9 (Homo sapiens, UniProt P11712); experiment: Measurement of CYP activity using CYP substrates in PHH (DIC to 4OH-DIC); assay type: in vitro ADME; conditions: 5 μM DIC
T3 construct: endogenous in cells; host or cells: primary human hepatocytes (PHH)
Procedure: as §1, §2, §3

T1 sequence (P33261 whole entry): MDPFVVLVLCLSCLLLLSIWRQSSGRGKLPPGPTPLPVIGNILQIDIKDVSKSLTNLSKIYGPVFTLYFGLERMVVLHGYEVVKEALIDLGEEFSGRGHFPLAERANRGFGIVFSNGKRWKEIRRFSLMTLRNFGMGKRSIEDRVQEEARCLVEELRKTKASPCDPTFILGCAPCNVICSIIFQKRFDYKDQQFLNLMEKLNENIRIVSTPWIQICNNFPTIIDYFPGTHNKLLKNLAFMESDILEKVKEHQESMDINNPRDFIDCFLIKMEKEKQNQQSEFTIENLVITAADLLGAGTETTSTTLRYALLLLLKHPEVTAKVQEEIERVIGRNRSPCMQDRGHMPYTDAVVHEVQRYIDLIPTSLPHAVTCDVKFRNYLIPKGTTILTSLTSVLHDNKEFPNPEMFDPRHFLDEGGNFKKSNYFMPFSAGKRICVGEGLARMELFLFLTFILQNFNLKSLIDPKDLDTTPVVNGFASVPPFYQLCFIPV
T2 sequence (P10635 whole entry): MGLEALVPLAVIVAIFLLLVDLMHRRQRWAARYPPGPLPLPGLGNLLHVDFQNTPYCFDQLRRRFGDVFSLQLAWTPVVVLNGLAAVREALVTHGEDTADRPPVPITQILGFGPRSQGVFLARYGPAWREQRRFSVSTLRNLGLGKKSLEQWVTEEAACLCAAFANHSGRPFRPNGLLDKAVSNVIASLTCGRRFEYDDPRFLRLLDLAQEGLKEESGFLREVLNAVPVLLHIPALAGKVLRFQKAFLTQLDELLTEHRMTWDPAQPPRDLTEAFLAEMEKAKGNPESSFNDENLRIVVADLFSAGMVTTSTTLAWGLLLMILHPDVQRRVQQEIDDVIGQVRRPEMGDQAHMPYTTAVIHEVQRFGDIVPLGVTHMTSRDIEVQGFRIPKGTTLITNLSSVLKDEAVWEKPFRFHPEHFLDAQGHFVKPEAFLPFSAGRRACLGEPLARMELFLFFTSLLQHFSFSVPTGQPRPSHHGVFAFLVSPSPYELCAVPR
T3 sequence (P11712 whole entry): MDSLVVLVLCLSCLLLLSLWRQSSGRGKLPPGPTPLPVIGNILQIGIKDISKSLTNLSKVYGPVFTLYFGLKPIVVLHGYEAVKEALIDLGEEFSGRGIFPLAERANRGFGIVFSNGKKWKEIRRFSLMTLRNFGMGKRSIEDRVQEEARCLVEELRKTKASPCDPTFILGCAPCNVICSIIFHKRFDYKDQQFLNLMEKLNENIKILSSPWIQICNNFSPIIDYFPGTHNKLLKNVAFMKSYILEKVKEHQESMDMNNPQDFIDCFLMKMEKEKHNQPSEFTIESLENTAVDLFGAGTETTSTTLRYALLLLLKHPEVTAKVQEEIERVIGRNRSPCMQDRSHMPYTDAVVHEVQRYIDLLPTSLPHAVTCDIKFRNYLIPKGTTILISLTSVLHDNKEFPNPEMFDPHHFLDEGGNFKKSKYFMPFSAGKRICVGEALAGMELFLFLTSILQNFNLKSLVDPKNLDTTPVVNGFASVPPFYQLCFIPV

formation rate of metabolite, microfluidic device versus PS plate [1]: significantly lower
Drug absorption rate [2]: 0.8633
Compound: CCC1(c2ccc(O)cc2)NC(=O)N(C)C1=O (centres unmarked) [4-hydroxymephenytoin]

formation rate of metabolite, microfluidic device versus polystyrene plate [3]: similar
Drug absorption rate [2]: 0.9648
absorption in the microfluidic device ([2]; PDMS device without PHH): not absorbed
Compound: CC(O)c1cccc2cc(C(O)CNC(C)(C)C)oc12 (centres unmarked) [1-hydroxybufuralol]

formation rate of metabolite, microfluidic device versus polystyrene plate [6]: similar
Drug absorption rate [2]: 0.8987
Compound: CC(=O)Nc1ccc(O)cc1 [Acetaminophen, acetaminophen]
CC50 at 4 days [4]: 9.4 mM
cell viability, microfluidic device versus polystyrene plate [5]: significantly lower

Compound: O=C(O)Cc1ccccc1Nc1c(Cl)cc(O)cc1Cl [4-hydroxy diclofenac, 4-hydroxydiclofenac]
formation rate of metabolite, microfluidic device versus PS plate [7]: significantly lower
Drug absorption rate [2]: 0.725
